The subject of this assay is C57BL6 mice, intraperitoneal injection of LPS. The assay can be described thus: Survival after intraperitoneal LPS. In kind it is in vivo, mouse. Particulars: LPS 20 mg/kg IP; 10 mcg/kg/dose IP, 1 hour prior and 6 hours after; vs LPS+scrambled peptide, p=0.02. Here is the method:
FIG. 10A is a graph tracking survival of C57BL6 mice in various treatment arms following intraperitoneal injection of LPS (20 mg/kg). CRISPP-treated mice (10 mcg/kg/dose) received 2 doses intraperitoneally; one given 1 hour prior to infection and one dose given 6 hours after infection. The same dose, delivery route, and schedule were followed for the scrambled peptide control mice. Six mice were assessed in both groups.
Survival of outbred Swiss mice was tracked in various treatment arms following intraperitoneal injection of either LPS (20 mg/kg) or E. coli (4×10^7 bacteria), as shown in FIGS. 10A and 10B. […] Six mice were assessed in both groups: LPS+CRISPP and LPS+scrambled control peptide. […] Ten mice were assessed in each group: no treatment, E. coli+CRISPP, and E. coli+scrambled control peptide. […] Referring to FIG. 11, CRISPP was also evaluated in a murine model of polymicrobial infection caused by cecal ligation and puncture (CL/P). […] Ten mice were assessed in each of the CL/P groups. […]
Animals were treated with CRISPP (10 mg/kg), nNIF (10 mg/kg), or SCR (10 mg/kg) by i.p. injection 1 hour prior to and 6 hours after infection (E. coli, 4.5×10^7 cfu/mouse, i.p. injection) or stimulation (LPS, 25 mg/kg, i.p. injection). […] Survival was assessed over 6 days at 6 hour to 12 hour intervals.

Take “Cancer-Associated SCM-Recognition, Immune Defense Suppression, and Serine Protease Protection Peptide [CRISPP, nNIF-related peptide (nNRP)]”: the Survival entry is reported as “statistically greater”.

Values taken from US10232023B2, “Methods for treatment of and prophylaxis against inflammatory disorders” (THE UNIVERSITY OF UTAH RESEARCH FOUNDATION, priority 2013, dated 2019).
